Source: the supplement of paper PMC11061612

Experiments:
Test in all cases: Bliss excess, mean over the matrix (fraction); higher = more synergy
[1] = tested on: SW982 (Other Solid Carcinomas)
How it was run: (§1)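 After 24 hours at 37°C and 5% CO2 in 1536-well plates, cells in DMEM/F12 or RPMI plus 10% FBS received two-drug dose matrices for 72 hours. Viability came from CellTiter-Glo 2.0 luminescence and was scaled as inhibition, anchored at 0 by vehicle wells and at 1 by blank wells. Combination Emax is taken as the second-highest inhibition in the matrix, and Bliss excess as the observed combination effect less EA + EB − EA·EB, with EA and EB the single-agent effects.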

[2] = tested on: ML-2 (Acute Myeloid Leukemia)
How it was run: as §1

SK-N-AS (Neuroblastoma) = tested on: SK-N-AS (Neuroblastoma)
How it was run: as §1

[3] = tested on: KOPN-8 (B-Lymphoblastic Leukemia)
How it was run: as §1

[4] = tested on: HAL-01 (B-Lymphoblastic Leukemia)
How it was run: as §1

[5] = tested on: NCI-H1993 (Lung Adenocarcinoma)
How it was run: as §1

[6] = tested on: NCI-H650 (Lung Adenocarcinoma)
How it was run: as §1

[7] = tested on: MDA-MB-453 (Breast Carcinoma)
How it was run: as §1

[8] = tested on: NCI-H2122 (Lung Adenocarcinoma)
How it was run: as §1

[9] = tested on: EJM (Plasma Cell Myeloma)
How it was run: as §1

Hey (Ovarian Carcinoma) = tested on: Hey (Ovarian Carcinoma)
How it was run: as §1

[10] = tested on: KGN (Other Solid Carcinomas)
How it was run: as §1

[11] = tested on: CADO-ES1 (Ewing's Sarcoma)
How it was run: as §1

COLO-679 (Melanoma) = tested on: COLO-679 (Melanoma)
How it was run: as §1

[12] = tested on: MOG-G-UVW (Low Grade Glioma)
How it was run: as §1

[13] = tested on: Mo-T (Other Blood Carcinomas)
How it was run: as §1

[14] = tested on: EFO-21 (Ovarian Carcinoma)
How it was run: as §1

[15] = tested on: HCC2998 (Colorectal Carcinoma)
How it was run: as §1

[16] = tested on: G-401 (Other Solid Carcinomas)
How it was run: as §1

[17] = tested on: OACM5-1 (Esophageal Adenocarcinoma)
How it was run: as §1

COc1cccc(OCCCN)c1-c1cc(Nc2cnc(C#N)cn2)n[nH]1 [Prexasertib] + C[C@@H]1COCCN1C2=NC(=NC(=C2)C3(CC3)[S@](=N)(=O)C)C4=C5C=CNC5=NC=C4 [AZD6738] (first compound max 1 µM, 7x7, partner max 10 µM)
Bliss excess [1]: -0.0406
Bliss excess [2]: -0.0361
Bliss excess (SK-N-AS (Neuroblastoma)): -0.011
Bliss excess [3]: -0.0539
Bliss excess [4]: -0.022
Bliss excess [5]: -0.0176
Bliss excess [6]: -0.0278
Bliss excess [7]: -0.0036
Bliss excess [8]: -0.0262
Bliss excess [9]: -0.044
Bliss excess (Hey (Ovarian Carcinoma)): 0.007
Bliss excess [10]: -0.0399
Bliss excess [11]: -0.0348
Bliss excess (COLO-679 (Melanoma)): -0.0836
Bliss excess [12]: 0.0317
Bliss excess [13]: -0.0463
Bliss excess [14]: -0.02
Bliss excess [15]: 0.0211
Bliss excess [16]: 0.0399
Bliss excess [17]: -0.0153

COc1nnc2ccc(N3CCC(c4ccc(OCCN5CCN(C)C(=O)[C@H]5C)cc4)CC3)nn12 [AZD5153] + CCN(CCO)CCCOc1ccc2c(Nc3cc(CC(=O)Nc4cccc(F)c4)[nH]n3)ncnc2c1 [AZD2811] (first compound max 1 µM, 7x7, partner max 1 µM)
Bliss excess [1]: -0.0857
Bliss excess [2]: -0.0355
Bliss excess (SK-N-AS (Neuroblastoma)): -0.0065
Bliss excess [3]: -0.0341
Bliss excess [4]: -0.0689
Bliss excess [5]: -0.0401
Bliss excess [6]: 0.0112
Bliss excess [7]: -0.0087
Bliss excess [8]: -0.08
Bliss excess [9]: 0.0224
Bliss excess (Hey (Ovarian Carcinoma)): -0.0417
Bliss excess [10]: -0.0951
Bliss excess [11]: -0.0493
Bliss excess (COLO-679 (Melanoma)): -0.0181
Bliss excess [12]: -0.0313
Bliss excess [13]: 0.0014
Bliss excess [14]: -0.0771
Bliss excess [15]: -0.0288
Bliss excess [16]: -0.0625
Bliss excess [17]: 0.0367

CCN(CCO)CCCOc1ccc2c(Nc3cc(CC(=O)Nc4cccc(F)c4)[nH]n3)ncnc2c1 [AZD2811] + O=C(c1cc(Cc2n[nH]c(=O)c3ccccc23)ccc1F)N1CCN(C(=O)C2CC2)CC1 [Olaparib] (first compound max 1 µM, 7x7, partner max 10 µM)
Bliss excess [1]: -0.0365
Bliss excess [2]: -0.0595
Bliss excess (SK-N-AS (Neuroblastoma)): 0.0255
Bliss excess [3]: 0.0034
Bliss excess [4]: -0.043
Bliss excess [5]: -0.0211
Bliss excess [6]: -0.003
Bliss excess [7]: -0.0253
Bliss excess [8]: 0.0155
Bliss excess [9]: 0.0335
Bliss excess (Hey (Ovarian Carcinoma)): 0.0251
Bliss excess [10]: -0.0152
Bliss excess [11]: 0.0242
Bliss excess (COLO-679 (Melanoma)): -0.0569
Bliss excess [12]: -0.0088
Bliss excess [13]: -0.027
Bliss excess [14]: -0.0409
Bliss excess [15]: 0.0257
Bliss excess [16]: 0.0174
Bliss excess [17]: 0.0082

CCN(CCO)CCCOc1ccc2c(Nc3cc(CC(=O)Nc4cccc(F)c4)[nH]n3)ncnc2c1 [AZD2811] + C[C@@H]1COCCN1C2=NC(=NC(=C2)C3(CC3)[S@](=N)(=O)C)C4=C5C=CNC5=NC=C4 [AZD6738] (first compound max 1 µM, 7x7, partner max 10 µM)
Bliss excess [1]: -0.0585
Bliss excess [2]: -0.0428
Bliss excess (SK-N-AS (Neuroblastoma)): -0.0365
Bliss excess [3]: 0.032
Bliss excess [4]: 0.0306
Bliss excess [5]: -0.0726
Bliss excess [6]: -0.0422
Bliss excess [7]: -0.0352
Bliss excess [8]: -0.0436
Bliss excess [9]: -0.0286
Bliss excess (Hey (Ovarian Carcinoma)): -0.0498
Bliss excess [10]: -0.0854
Bliss excess [11]: -0.012
Bliss excess (COLO-679 (Melanoma)): -0.103
Bliss excess [12]: -0.0581
Bliss excess [13]: -0.0188
Bliss excess [14]: -0.0656
Bliss excess [15]: -0.0574
Bliss excess [16]: -0.0518
Bliss excess [17]: -0.0628
